What was measured:
HEMO gene = test: Effect of DNA demethylation on HEMO gene expression, RT-qPCR; type: cell-based, human; settings: for dose at which HEMO transcripts were detectable by qRT-PCR: 3-day treatment, doses 0.1 to 5 μM
Experimental: For treatment with 5-Aza-2′-deoxycytidine (5-Aza-dC; SIGMA-ALDRICH), 2×10^5 BeWo and 293T cells were plated in 6-well dishes. Doses ranging from 0.1 to 5 μM of 5-Aza-dC were then added to the culture for 3 days, with fresh medium each day. Cells were harvested for RNA extraction one day later.
Total RNAs from human tissues and cells were either purchased from ZYAGEN (San Diego), or isolated using the RNAeasy Isolation Kit (QIAGEN) according to the manufacturer's instructions, and treated with Dnase I (AMBION). Reverse transcription was performed with 1 μg of RNA using the MLV reverse-transcriptase (APPLIED BIOSYSTEMS). Real-time quantitative PCR was carried out with 5 μl of diluted (1:20) cDNA in a final volume of 25 μl by using SYBR green PCR master mix (QIAGEN). qPCR was carried out with an ABI Prism 7000 sequence detection system, using primers listed in Table 4 above. Transcript levels were normalized relative to the amount of a housekeeping gene (RPLPO or G6PD) mRNA. Samples were assayed in duplicate.

[1] = system: HEMO release in the supernatant; test: Inhibition of HEMO release (shedding) in supernatant of phCMV-HEMO transfected 293T cells, Western blot; type: cell-based, human; settings: 293T cells transfected with phCMV-HEMO, treated 3 days, BATIMASTAT 0.1 to 10 μM, MARIMASTAT 0.1 to 10 μM, GM6001 1 to 50 μM
Experimental: For treatment with metalloprotease inhibitors, 5×10^5 293T cells were seeded in 6-well dishes with 2 mL/well of culture medium. One day after seeding, cells were transiently transfected using 1.5 μg phCMV-HEMO plasmid and 4.5 μL Lipofectamine LTX (THERMOFISHER) per well. One day post-transfection, cells were incubated with culture medium supplemented with the indicated concentrations of metalloprotease inhibitors (CALBIOCHEM): BATIMASTAT (0.1 to 10 μM), MARIMASTAT (0.1 to 10 μM) or GM6001 (1 to 50 μM). Medium with inhibitors was replenished for 2 other days, and supernatants were collected and filtered through 0.45 μm MILLIPORE filters one day later. Cells were harvested the same day for protein analysis.
Samples, cell supernatants or cell lysates were analyzed by SDS/PAGE on gradient precast gels (NuPAGE NOVEX 4-12% Bis-Tris gels, LIFE TECHNOLOGIES), and transfer onto nitrocellulose membranes using a semi-dry transfer system. […] Proteins were detected by using an enhanced chemiluminescence system (ECL, PIERCE).

Structure (SMILES)	dose at which HEMO transcripts were detectable by qRT-PCR (HEMO gene; 293T cells) [µM]	dose at which HEMO transcripts were detectable by qRT-PCR (HEMO gene; BeWo cells) [µM]	HEMO gene transcript level after treatment (HEMO gene; CaCo-2 cells (HEMO-expressing), similar 5-Aza-dC treatment)	HEMO release in the supernatant [1]
Nc1ncn([C@H]2C[C@H](O)[C@@H](CO)O2)c(=O)n1 [5-Aza-dC, 5-Aza-2′-deoxycytidine]	5	0.1	not further amplified	–
CNC(=O)[C@H](Cc1c[nH]c2ccccc12)NC(=O)[C@@H](CC(=O)NO)CC(C)C [GM6001]	–	–	–	clearly inhibited HEMO release in the supernatant
CNC(=O)[C@@H](NC(=O)[C@H](CC(C)C)[C@H](O)C(=O)NO)C(C)(C)C [MARIMASTAT]	–	–	–	clearly inhibited HEMO release in the supernatant
